Results on seven compounds are retold here after ChEMBL document CHEMBL3045179, “Mode of Action and QSAR Studies of Nitrification Inhibitors” (J Pestic Sci, 1997).

For data set [1], the system named is Nitrosomonas europaea. The data set is described as follows: Inhibition of Nitrosomonas europaea ATCC 25978-mediated nitrification activity assessed as nitrite nitrogen formation after 7 to 10 days by Griess-Ilosvay method. Conditions: read-out: pI50 (converted). The data set is classed as functional, organism-based.
Data set [2] in a line: Octanol-water partition coefficient, log P of the compound. The data set is classed as physicochemical.
The test system of data set [3] is Nitrosomonas sp. TK794. The data set is described as follows: Inhibition of Nitrosomonas sp. TK794-mediated nitrification activity assessed as nitrite nitrogen formation at 5 mg/kg after 7 to 10 days by Griess-Ilosvay method relative to control. It is filed as functional.
Data set [4] has as its system Nitrosomonas europaea. Put plainly: Inhibition of Nitrosomonas europaea ATCC 25978-mediated nitrification activity assessed as nitrite nitrogen formation at 5 mg/kg after 7 to 10 days by Griess-Ilosvay method relative to control. It is filed as functional.
For data set [5], the system named is Nitrosomonas sp. TK794. Put plainly: Inhibition of Nitrosomonas sp. TK794-mediated nitrification activity assessed as nitrite nitrogen formation at 25 mg/kg after 7 to 10 days by Griess-Ilosvay method relative to control. The data set is classed as functional.
Data set [6] deals with Nitrosomonas europaea. Put plainly: Inhibition of Nitrosomonas europaea ATCC 25978-mediated nitrification activity assessed as nitrite nitrogen formation at 0.1 mg/kg after 7 to 10 days by Griess-Ilosvay method relative to control. It is filed as functional. The conditions noted are these: values are per cent of control.
Data set [7] deals with Nitrosomonas sp. TK794. The data set is described as follows: Inhibition of Nitrosomonas sp. TK794-mediated nitrification activity assessed as nitrite nitrogen formation at 0.1 mg/kg after 7 to 10 days by Griess-Ilosvay method relative to control. The data set is classed as functional.
In data set [8] the test system is Nitrosomonas europaea. Put plainly: Inhibition of Nitrosomonas europaea ATCC 25978-mediated nitrification activity assessed as nitrite nitrogen formation at 2 mg/kg after 7 to 10 days by Griess-Ilosvay method relative to control. The data set is classed as functional.
Data set [9] relates to Nitrosomonas sp. TK794. Put plainly: Inhibition of Nitrosomonas sp. TK794-mediated nitrification activity assessed as nitrite nitrogen formation at 4 mg/kg after 7 to 10 days by Griess-Ilosvay method relative to control. The data set is classed as functional.
The test system of data set [10] is Nitrosomonas europaea. Put plainly: Inhibition of Nitrosomonas europaea ATCC 25978-mediated nitrification activity assessed as nitrite nitrogen formation at 10 mg/kg after 7 to 10 days by Griess-Ilosvay method relative to control. It is filed as functional.
The subject of data set [11] is Nitrosomonas sp. TK794. The data set is described as follows: Inhibition of Nitrosomonas sp. TK794-mediated nitrification activity assessed as nitrite nitrogen formation at 50 mg/kg after 7 to 10 days by Griess-Ilosvay method relative to control. The data set is classed as functional.
For data set [12], the system named is Nitrosomonas europaea. Put plainly: Inhibition of Nitrosomonas europaea ATCC 25978-mediated nitrification activity assessed as nitrite nitrogen formation at 200 mg/kg after 7 to 10 days by Griess-Ilosvay method relative to control. The data set is classed as functional.
For data set [13], the system named is Nitrosomonas sp. TK794. Put plainly: Inhibition of Nitrosomonas sp. TK794-mediated nitrification activity assessed as nitrite nitrogen formation at 500 mg/kg after 7 to 10 days by Griess-Ilosvay method relative to control. It is filed as functional.
Data set [14] has as its system Nitrosomonas europaea. The data set is described as follows: Inhibition of Nitrosomonas europaea ATCC 25978-mediated nitrification activity assessed as nitrite nitrogen formation at 400 mg/kg after 7 to 10 days by Griess-Ilosvay method relative to control. It is filed as functional.

In the case of `CCCCCCCCCCCCNc1nc(C(Cl)(Cl)Cl)nc(C(Cl)(Cl)Cl)n1`, the IC50 with Nitrosomonas europaea [1] was 5.75 µM. Moreover, in [2] (read-out: logP), the lipophilicity (logP) was determined as 8.96. Besides, the figures for the inhibition in vivo at 5 mg/kg in the data set with Nitrosomonas sp. TK794 [3] and with Nitrosomonas europaea [4] were 55.2% and 50%, respectively.

With `ClC(Cl)(Cl)c1nc(C(Cl)(Cl)Cl)nc(C(Cl)(Cl)Cl)n1`, the logP in data set [2] (read-out: logP) worked out at 3.71. In the data set on Nitrosomonas sp. TK794 [5], the inhibition in vivo at 25 mg/kg turned out to be 50%.

Turning to `CCNc1nc(OC)nc(C(Cl)(Cl)Cl)n1`, the IC50 in the data set with Nitrosomonas europaea [1] was 0.331 µM. Also, the residual activity at 0.1 mg/kg in the data set with Nitrosomonas europaea [6] came out at 49.1%. Further, in data set [2] (read-out: logP), the lipophilicity (logP) came out at 3.57. In the data set on Nitrosomonas sp. TK794 [7], the inhibition in vivo at 0.1 mg/kg came out at 56.8%.

With `Nc1nc(N)nc(C(Cl)(Cl)Cl)n1`, in the data set with Nitrosomonas europaea [1], the IC50 is 7.08 µM. Moreover, the logP in data set [2] (read-out: logP) stood at 1.21. Also, the inhibition in vivo at 2 mg/kg with Nitrosomonas europaea [8] is 63.2%. In addition, in the data set with Nitrosomonas sp. TK794 [9], the inhibition in vivo at 4 mg/kg came to 40%.

`CCCCCCCCCCNc1nc(C)nc(C(Cl)(Cl)Cl)n1`: the inhibition in vivo at 10 mg/kg in the data set with Nitrosomonas europaea [10] came to 56.2%. Besides, the inhibition in vivo at 50 mg/kg with Nitrosomonas sp. TK794 [11] was found to be 50%. In the data set on Nitrosomonas europaea [1], the IC50 is 9.12 µM. Also, the logP in data set [2] (read-out: logP) amounted to 8.27.

In the case of `CCCCCCCCCCCCCCCCNc1nc(C(Cl)(Cl)Cl)nc(C(Cl)(Cl)Cl)n1`, in data set [2], the logP is 11.05. Also, the inhibition in vivo at 200 mg/kg in the data set with Nitrosomonas europaea [12] stood at 52.8%. In the data set with Nitrosomonas sp. TK794 [13], the inhibition in vivo at 500 mg/kg came to 52.9%.

In [2], `CCCCCCCCCCCCCCCCNc1nc(C)nc(C(Cl)(Cl)Cl)n1` had a log partition coefficient (logP) of 11.4. Also, the inhibition in vivo at 400 mg/kg with Nitrosomonas europaea [14] was 45.2%. For the same compound, in the data set with Nitrosomonas sp. TK794 [13], the inhibition in vivo at 500 mg/kg amounted to 81%.
